Experiment: molar heat capacity at constant pressure
Conditions: 101.33 kPa

CCC(O)CC [3-pentanol]
Conditions | molar heat capacity at constant pressure [J/K/mol]
152.99 K, Liquid | 150.52
154.56 K, Crystal | 105.87
155.94 K, Liquid | 150.86
156.51 K, Crystal | 107.42
158.46 K, Crystal | 108.86
158.9 K, Liquid | 151.16
160 K, Crystal | 118.8
160.42 K, Crystal | 110.34
161.85 K, Liquid | 151.55
162.38 K, Crystal | 111.71
164.37 K, Crystal | 103.35
164.81 K, Liquid | 152.15
166.37 K, Crystal | 115.34
167.78 K, Liquid | 153.56
168.31 K, Crystal | 115.72
170 K, Crystal | 110.3
170.23 K, Crystal | 116.98
170.76 K, Liquid | 159.22
172.17 K, Crystal | 118.28
174.1 K, Crystal | 119.45
176.01 K, Crystal | 120.74
177.92 K, Crystal | 121.98
179.81 K, Crystal | 123.05
180 K, Crystal | 123.2
181.69 K, Crystal | 124.1
183.56 K, Crystal | 125.1
185.42 K, Crystal | 126.2
187.27 K, Crystal | 127.45
189.1 K, Crystal | 129.05
190 K, Crystal | 129.8
190.93 K, Crystal | 130.67
191.18 K, Crystal | 146.69
192.74 K, Crystal | 132.33
193.08 K, Crystal | 133.23
194.53 K, Crystal | 134.71
194.98 K, Crystal | 136.27
196.31 K, Crystal | 137.6
197.93 K, Crystal | 143.45
198.06 K, Crystal | 141.76
200 K, Crystal | 155.5
206.59 K, Liquid | 163.08
206.86 K, Liquid | 162.81
208.54 K, Liquid | 163.45
209.46 K, Liquid | 164.31
210 K, Liquid | 164.2
210.2 K, Liquid | 164.21
211.87 K, Liquid | 164.95
212.32 K, Liquid | 165.57
213.52 K, Liquid | 165.62
215.16 K, Liquid | 167.02
215.17 K, Liquid | 166.57
216.82 K, Liquid | 167.31
217.99 K, Liquid | 168.45
218.46 K, Liquid | 168.22
220 K, Liquid | 169.1
220.1 K, Liquid | 169.14
220.8 K, Liquid | 170.05
221.73 K, Liquid | 170.07
223.36 K, Liquid | 170.87
223.59 K, Liquid | 171.64
224.98 K, Liquid | 171.87
226.37 K, Liquid | 173.5
226.59 K, Liquid | 172.95
228.2 K, Liquid | 173.95
229.13 K, Liquid | 175.38
229.81 K, Liquid | 174.99
230 K, Liquid | 175.1
231.41 K, Liquid | 176.24
231.88 K, Liquid | 177.23
233 K, Liquid | 177.29
234.59 K, Liquid | 178.66
234.61 K, Liquid | 179.15
236.17 K, Liquid | 179.8
237.32 K, Liquid | 181.22
237.75 K, Liquid | 180.73
239.32 K, Liquid | 182.03
240 K, Liquid | 183.5
240.01 K, Liquid | 183.55
240.89 K, Liquid | 183.27
242.45 K, Liquid | 184.57
242.69 K, Liquid | 185.78
244 K, Liquid | 185.93
245.34 K, Liquid | 188.15
245.55 K, Liquid | 187.34
247.09 K, Liquid | 188.71
247.98 K, Liquid | 190.62
248.63 K, Liquid | 190.19
250 K, Liquid | 191.4
250.16 K, Liquid | 191.69
250.61 K, Liquid | 193.22
251.68 K, Liquid | 193.3
253.2 K, Liquid | 194.61
253.21 K, Liquid | 195.73
254.72 K, Liquid | 195.45
255.8 K, Liquid | 198.08
256.23 K, Liquid | 197.32
257.73 K, Liquid | 198.94
258.37 K, Liquid | 201.08
259.23 K, Liquid | 200.52
260 K, Liquid | 201
260.72 K, Liquid | 202.41
260.93 K, Liquid | 204.02
262.21 K, Liquid | 203.99
263.46 K, Liquid | 207.15
263.69 K, Liquid | 205.59
265.16 K, Liquid | 207.37
265.98 K, Liquid | 210.2
266.63 K, Liquid | 209.14
268.09 K, Liquid | 210.93
268.47 K, Liquid | 213.3
269.54 K, Liquid | 212.66
270 K, Liquid | 213.6
270.95 K, Liquid | 216.47
270.99 K, Liquid | 214.5
272.44 K, Liquid | 216.21
273.41 K, Liquid | 219.31
273.87 K, Liquid | 218
275.3 K, Liquid | 219.86
275.85 K, Liquid | 222.84
276.73 K, Liquid | 221.67
278.15 K, Liquid | 223.45
278.28 K, Liquid | 226.05
279.56 K, Liquid | 225.24
280 K, Liquid | 227
280.68 K, Liquid | 229.31
280.97 K, Liquid | 227.16
282.37 K, Liquid | 228.87
283.07 K, Liquid | 232.43
283.76 K, Liquid | 230.71
285.15 K, Liquid | 232.47
285.44 K, Liquid | 235.64
286.54 K, Liquid | 234.44
287.8 K, Liquid | 239.08
287.92 K, Liquid | 236.08
289.29 K, Liquid | 237.78
290 K, Liquid | 238.7
290.66 K, Liquid | 239.56
292.02 K, Liquid | 241.24
293.38 K, Liquid | 242.8
294.74 K, Liquid | 244.64
296.09 K, Liquid | 246.1
297.43 K, Liquid | 247.9
298.15 K, Liquid | 248.7
298.77 K, Liquid | 249.27
300 K, Liquid | 250.7
300.11 K, Liquid | 250.87
301.44 K, Liquid | 252.15
302.77 K, Liquid | 254
304.09 K, Liquid | 255.2
305.41 K, Liquid | 256.63
306.73 K, Liquid | 258.11
308.04 K, Liquid | 259.35
309.35 K, Liquid | 260.74

From the NIST ThermoML archive (doi:10.1021/je060411g)
